In ChEMBL document CHEMBL1201862, “PubChem BioAssay data set” (2004):
Active and inactive are the calls of the source.

Tests used:
Type in all cases: functional
[1] = biological target: Serine/threonine-protein kinase Chk1 (Homo sapiens, UniProt O14757);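 also: measured as one member of a kinome-wide kinase profiling panel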
[2] = biological target: 5'-AMP-activated protein kinase catalytic subunit alpha-1 (Homo sapiens, UniProt Q13131)
[3] = biological target: Receptor-type tyrosine-protein kinase FLT3 (Homo sapiens, UniProt P36888);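 also: FLT3 was tested as one member of a kinome-wide kinase panel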
Chain of Receptor-type tyrosine-protein kinase FLT3 (P36888 whole entry): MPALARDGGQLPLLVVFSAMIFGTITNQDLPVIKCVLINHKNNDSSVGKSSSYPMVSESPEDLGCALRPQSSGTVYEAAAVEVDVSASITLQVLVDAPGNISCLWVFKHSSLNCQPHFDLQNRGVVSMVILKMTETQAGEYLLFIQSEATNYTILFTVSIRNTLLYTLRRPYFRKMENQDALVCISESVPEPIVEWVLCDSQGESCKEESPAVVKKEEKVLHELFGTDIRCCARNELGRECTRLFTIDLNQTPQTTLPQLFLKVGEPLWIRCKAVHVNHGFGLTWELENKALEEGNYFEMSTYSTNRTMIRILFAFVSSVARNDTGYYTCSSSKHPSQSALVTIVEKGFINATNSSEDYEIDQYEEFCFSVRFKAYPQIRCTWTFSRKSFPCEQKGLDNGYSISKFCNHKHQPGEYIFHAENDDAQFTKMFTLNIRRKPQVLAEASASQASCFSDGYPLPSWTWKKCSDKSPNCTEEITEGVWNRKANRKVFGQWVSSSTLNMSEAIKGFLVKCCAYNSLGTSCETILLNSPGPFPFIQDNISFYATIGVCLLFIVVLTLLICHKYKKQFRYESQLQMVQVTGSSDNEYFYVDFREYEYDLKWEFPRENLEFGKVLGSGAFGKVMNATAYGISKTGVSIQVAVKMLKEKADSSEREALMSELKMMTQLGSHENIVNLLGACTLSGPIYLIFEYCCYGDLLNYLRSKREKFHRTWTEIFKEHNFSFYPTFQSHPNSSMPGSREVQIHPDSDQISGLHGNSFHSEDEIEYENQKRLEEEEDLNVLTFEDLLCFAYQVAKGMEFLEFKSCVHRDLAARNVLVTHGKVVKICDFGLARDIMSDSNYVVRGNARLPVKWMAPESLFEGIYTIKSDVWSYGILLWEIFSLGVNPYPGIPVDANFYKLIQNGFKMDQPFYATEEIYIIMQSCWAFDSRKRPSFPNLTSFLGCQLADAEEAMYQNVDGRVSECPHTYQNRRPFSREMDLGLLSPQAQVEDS

[4] = biological target: Protein kinase C iota type (Homo sapiens, UniProt P41743);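 also: measured within a kinome-wide kinase panel, PRKCI as panel member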
[5] = biological target: Cyclin-dependent kinase 1 (Homo sapiens, UniProt P06493);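 also: Kinome-wide panel profiling, with the target listed as panel member CDC2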
[6] = biological target: Tyrosine-protein kinase ABL1 (Homo sapiens, UniProt P00519)
[7] = biological target: RAC-alpha serine/threonine-protein kinase (Homo sapiens, UniProt P31749);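 also: AKT1 affinity measured as one member of a kinome-wide kinase profiling panel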
Chain of RAC-alpha serine/threonine-protein kinase (P31749 whole entry): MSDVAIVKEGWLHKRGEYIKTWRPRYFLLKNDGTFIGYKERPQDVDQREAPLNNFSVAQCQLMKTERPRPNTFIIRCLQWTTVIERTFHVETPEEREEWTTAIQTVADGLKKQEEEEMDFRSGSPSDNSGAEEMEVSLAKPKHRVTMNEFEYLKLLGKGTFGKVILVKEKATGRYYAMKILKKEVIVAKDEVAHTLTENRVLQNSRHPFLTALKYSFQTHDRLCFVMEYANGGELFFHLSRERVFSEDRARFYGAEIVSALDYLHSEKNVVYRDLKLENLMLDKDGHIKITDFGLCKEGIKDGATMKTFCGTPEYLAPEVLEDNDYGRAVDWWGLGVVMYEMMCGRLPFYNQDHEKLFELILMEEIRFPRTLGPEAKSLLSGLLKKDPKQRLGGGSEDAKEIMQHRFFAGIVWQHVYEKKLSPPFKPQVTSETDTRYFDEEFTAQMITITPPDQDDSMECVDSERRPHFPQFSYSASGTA

[8] = biological target: Protein kinase C gamma type (Homo sapiens, UniProt P05129)
[9] = biological target: Serine/threonine-protein kinase MRCK alpha (Homo sapiens, UniProt Q5VT25)
[10] = biological target: Tyrosine-protein kinase JAK2 (Homo sapiens, UniProt O60674);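 also: JAK2 tested as one member of a kinase panel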
Aurora kinase A = Aurora kinase A (Homo sapiens, UniProt O14965);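 also: value from the Navigating the Kinome kinase panel profiling, panel entry STK6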
[11] = biological target: BDNF/NT-3 growth factors receptor (Homo sapiens, UniProt Q16620);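 also: NTRK2 measured as one member of a broad kinome-wide kinase profiling panel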
[12] = biological target: Ribosomal protein S6 kinase alpha-5 (Homo sapiens, UniProt O75582)
[13] = biological target: Proto-oncogene tyrosine-protein kinase receptor Ret (Homo sapiens, UniProt P07949);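 also: measured within a kinome-wide profiling panel, RET as the panel member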
[14] = biological target: Tyrosine-protein kinase BTK (Homo sapiens, UniProt Q06187)
[15] = biological target: Serine/threonine-protein kinase BRSK1 (Homo sapiens, UniProt Q8TDC3);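 also: measured within a kinome-wide kinase panel, with the target listed as KIAA1811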
Chain of Serine/threonine-protein kinase BRSK1 (Q8TDC3 whole entry): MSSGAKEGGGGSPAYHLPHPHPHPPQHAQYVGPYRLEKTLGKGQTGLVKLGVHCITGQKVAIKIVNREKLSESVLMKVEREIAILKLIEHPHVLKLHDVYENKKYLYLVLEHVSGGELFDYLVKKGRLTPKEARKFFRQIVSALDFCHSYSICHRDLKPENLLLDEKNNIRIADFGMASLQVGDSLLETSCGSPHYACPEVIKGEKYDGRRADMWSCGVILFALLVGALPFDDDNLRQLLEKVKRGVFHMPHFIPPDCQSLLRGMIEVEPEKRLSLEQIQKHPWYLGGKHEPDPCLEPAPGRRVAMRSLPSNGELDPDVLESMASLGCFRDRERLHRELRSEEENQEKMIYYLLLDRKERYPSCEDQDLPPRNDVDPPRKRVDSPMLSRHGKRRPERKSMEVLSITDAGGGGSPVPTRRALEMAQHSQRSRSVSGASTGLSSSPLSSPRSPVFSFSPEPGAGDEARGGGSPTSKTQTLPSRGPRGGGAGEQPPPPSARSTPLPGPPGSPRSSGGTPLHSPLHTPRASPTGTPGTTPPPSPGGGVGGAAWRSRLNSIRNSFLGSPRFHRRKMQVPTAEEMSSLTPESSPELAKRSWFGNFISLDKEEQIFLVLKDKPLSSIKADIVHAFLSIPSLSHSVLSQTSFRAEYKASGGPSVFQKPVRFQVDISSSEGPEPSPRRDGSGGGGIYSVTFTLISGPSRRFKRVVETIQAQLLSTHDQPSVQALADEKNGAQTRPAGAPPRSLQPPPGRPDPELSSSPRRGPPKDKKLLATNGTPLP

[16] = biological target: Calcium/calmodulin-dependent protein kinase type II subunit gamma (Homo sapiens, UniProt Q13555)
[17] = biological target: Calcium/calmodulin-dependent protein kinase type II subunit delta (Homo sapiens, UniProt Q13557)
[18] = biological target: Tyrosine-protein kinase JAK3 (Homo sapiens, UniProt P52333)
[19] = biological target: Interleukin-1 receptor-associated kinase 4 (Homo sapiens, UniProt Q9NWZ3)
Chain of Interleukin-1 receptor-associated kinase 4 (Q9NWZ3 whole entry): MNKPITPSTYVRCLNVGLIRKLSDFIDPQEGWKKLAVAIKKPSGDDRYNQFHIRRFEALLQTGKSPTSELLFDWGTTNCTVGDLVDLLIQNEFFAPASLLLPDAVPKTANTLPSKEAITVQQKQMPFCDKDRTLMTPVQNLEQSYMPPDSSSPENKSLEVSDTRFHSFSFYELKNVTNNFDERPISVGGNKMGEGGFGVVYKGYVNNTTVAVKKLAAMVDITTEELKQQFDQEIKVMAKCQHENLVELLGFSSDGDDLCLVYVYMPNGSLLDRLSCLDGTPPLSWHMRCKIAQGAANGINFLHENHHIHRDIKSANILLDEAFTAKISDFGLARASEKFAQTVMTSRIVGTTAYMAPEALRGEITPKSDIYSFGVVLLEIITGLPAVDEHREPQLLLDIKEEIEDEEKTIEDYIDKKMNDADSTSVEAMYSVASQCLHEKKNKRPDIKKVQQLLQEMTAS

[20] = biological target: Mitogen-activated protein kinase 8 (Homo sapiens, UniProt P45983);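 also: value comes from one member of a kinome-wide kinase profiling panel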
[21] = biological target: MAP kinase-activated protein kinase 3 (Homo sapiens, UniProt Q16644);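 also: value comes from a kinome-wide profiling panel in which MAPKAPK3 is one of the panel members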
[22] = biological target: Vascular endothelial growth factor receptor 2 (Homo sapiens, UniProt P35968)
Chain of Vascular endothelial growth factor receptor 2 (P35968 whole entry): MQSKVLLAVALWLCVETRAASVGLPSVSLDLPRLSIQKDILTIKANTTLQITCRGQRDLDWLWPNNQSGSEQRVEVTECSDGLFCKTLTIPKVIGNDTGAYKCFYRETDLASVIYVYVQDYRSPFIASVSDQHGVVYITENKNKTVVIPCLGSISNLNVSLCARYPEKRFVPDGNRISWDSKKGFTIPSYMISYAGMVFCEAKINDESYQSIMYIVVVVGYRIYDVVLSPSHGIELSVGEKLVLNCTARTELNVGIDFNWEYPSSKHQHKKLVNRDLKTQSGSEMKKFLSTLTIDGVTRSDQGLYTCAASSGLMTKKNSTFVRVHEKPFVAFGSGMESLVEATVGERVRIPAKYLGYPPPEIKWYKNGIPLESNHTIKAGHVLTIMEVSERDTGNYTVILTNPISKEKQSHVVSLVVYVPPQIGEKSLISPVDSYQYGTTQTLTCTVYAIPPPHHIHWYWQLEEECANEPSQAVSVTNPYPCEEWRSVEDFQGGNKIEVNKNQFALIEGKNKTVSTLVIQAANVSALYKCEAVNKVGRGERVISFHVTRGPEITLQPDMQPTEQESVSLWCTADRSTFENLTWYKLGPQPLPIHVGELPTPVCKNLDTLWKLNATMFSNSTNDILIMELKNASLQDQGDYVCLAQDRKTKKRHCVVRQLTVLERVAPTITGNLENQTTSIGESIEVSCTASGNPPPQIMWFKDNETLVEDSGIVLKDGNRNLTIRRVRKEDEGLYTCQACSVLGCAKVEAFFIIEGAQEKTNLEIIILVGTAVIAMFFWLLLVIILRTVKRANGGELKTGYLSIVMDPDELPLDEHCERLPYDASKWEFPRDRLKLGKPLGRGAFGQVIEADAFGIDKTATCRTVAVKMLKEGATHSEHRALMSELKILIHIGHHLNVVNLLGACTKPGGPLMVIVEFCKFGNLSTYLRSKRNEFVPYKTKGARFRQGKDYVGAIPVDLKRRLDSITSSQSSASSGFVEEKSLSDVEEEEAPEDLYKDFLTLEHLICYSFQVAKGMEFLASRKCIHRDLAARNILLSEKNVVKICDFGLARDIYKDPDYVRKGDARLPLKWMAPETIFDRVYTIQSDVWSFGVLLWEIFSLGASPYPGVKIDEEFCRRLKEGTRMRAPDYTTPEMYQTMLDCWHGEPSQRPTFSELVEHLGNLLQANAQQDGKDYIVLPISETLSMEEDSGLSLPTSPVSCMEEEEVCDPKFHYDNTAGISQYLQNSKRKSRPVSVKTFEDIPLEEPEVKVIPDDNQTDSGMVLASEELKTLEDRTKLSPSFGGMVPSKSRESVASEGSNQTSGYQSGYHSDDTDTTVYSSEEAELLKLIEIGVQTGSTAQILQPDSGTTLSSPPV

[23] = biological target: Tyrosine-protein kinase receptor TYRO3 (Homo sapiens, UniProt Q06418);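 also: TYRO3 value obtained as one member of a kinome-wide profiling panel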
Insulin receptor = Insulin receptor (Homo sapiens, UniProt P06213);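 also: insulin receptor kinase tested as one member of a kinome-wide kinase panel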
[24] = biological target: Glycogen synthase kinase-3 alpha (Homo sapiens, UniProt P49840);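 also: GSK3A result taken from a broad kinome-wide kinase panel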
Ephrin type-A receptor 2 = Ephrin type-A receptor 2 (Homo sapiens, UniProt P29317);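 also: EPHA2 tested as one member of a kinome-wide kinase panel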
[25] = biological target: Dual specificity protein kinase CLK2 (Homo sapiens, UniProt P49760)
[26] = biological target: Proto-oncogene tyrosine-protein kinase ROS (Homo sapiens, UniProt P08922);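 also: ROS1 tested as one member of a kinome-wide kinase panel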
[27] = biological target: Serine/threonine-protein kinase PAK 4 (Homo sapiens, UniProt O96013);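 also: value obtained within a kinome profiling panel in which PAK4 was one of the panel members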
[28] = biological target: Macrophage colony-stimulating factor 1 receptor (Homo sapiens, UniProt P07333);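 also: value comes from the Navigating the Kinome screening panel, CSF1R member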
[29] = biological target: Tyrosine-protein kinase Fer (Homo sapiens, UniProt P16591);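 also: FER tested as one member of a kinome panel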
[30] = biological target: Tyrosine-protein kinase Srms (Homo sapiens, UniProt Q9H3Y6);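 also: SRMS measured as one member of a kinome-wide kinase profiling panel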
[31] = biological target: MAP/microtubule affinity-regulating kinase 3 (Homo sapiens, UniProt P27448);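 also: MARK3 affinity measured as one member of a kinome panel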
[32] = biological target: Casein kinase I isoform gamma-1 (Homo sapiens, UniProt Q9HCP0);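 also: measured as the CSNK1G1 member of a kinome profiling panel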
[33] = biological target: Death-associated protein kinase 3 (Homo sapiens, UniProt O43293);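 also: measured as one member of a kinome-wide profiling panel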
[34] = biological target: Lymphokine-activated killer T-cell-originated protein kinase (Homo sapiens, UniProt Q96KB5);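 also: value comes from a kinase panel screen in which TOPK was one of the panel members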
Chain of Lymphokine-activated killer T-cell-originated protein kinase (Q96KB5 whole entry): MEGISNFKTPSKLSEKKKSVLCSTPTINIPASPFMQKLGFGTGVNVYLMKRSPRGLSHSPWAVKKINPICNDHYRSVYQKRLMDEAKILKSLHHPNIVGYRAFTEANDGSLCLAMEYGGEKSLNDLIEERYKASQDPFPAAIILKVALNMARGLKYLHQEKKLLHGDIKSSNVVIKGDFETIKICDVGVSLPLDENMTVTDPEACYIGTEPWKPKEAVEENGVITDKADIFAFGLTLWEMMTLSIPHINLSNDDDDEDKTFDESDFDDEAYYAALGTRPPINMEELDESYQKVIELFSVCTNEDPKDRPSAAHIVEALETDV

[35] = biological target: Mitogen-activated protein kinase kinase kinase 20 (Homo sapiens, UniProt Q9NYL2)
[36] = biological target: Serine/threonine-protein kinase PLK1 (Homo sapiens, UniProt P53350);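 also: PLK1 measured as one member of a kinome-wide profiling panel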
SRSF protein kinase 1 = SRSF protein kinase 1 (Homo sapiens, UniProt Q96SB4);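 also: measured as one member of a kinome-wide kinase profiling panel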
[37] = biological target: Calcium/calmodulin-dependent protein kinase type II subunit beta (Homo sapiens, UniProt Q13554)
Chain of Calcium/calmodulin-dependent protein kinase type II subunit beta (Q13554 whole entry): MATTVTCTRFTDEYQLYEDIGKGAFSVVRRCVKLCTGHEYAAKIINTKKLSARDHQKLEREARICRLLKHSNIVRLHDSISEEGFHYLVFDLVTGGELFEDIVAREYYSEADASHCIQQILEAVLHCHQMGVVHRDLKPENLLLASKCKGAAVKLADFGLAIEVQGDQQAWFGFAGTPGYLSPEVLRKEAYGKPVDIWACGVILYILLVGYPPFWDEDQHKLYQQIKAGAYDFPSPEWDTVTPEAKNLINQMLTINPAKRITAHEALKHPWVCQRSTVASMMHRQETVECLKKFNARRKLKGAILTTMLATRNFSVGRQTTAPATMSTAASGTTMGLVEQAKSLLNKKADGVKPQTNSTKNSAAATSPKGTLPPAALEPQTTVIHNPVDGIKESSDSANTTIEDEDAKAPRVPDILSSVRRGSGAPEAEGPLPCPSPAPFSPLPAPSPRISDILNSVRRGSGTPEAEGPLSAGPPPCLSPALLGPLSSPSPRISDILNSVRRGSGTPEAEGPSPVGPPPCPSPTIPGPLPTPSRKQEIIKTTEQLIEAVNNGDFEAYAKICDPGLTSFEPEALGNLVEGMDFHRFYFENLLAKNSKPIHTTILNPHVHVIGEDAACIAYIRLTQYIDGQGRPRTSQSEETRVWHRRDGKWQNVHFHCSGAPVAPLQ

Structure (SMILES): CCn1c(-c2nonc2N)nc2cnc(Oc3cccc(NC(=O)c4ccc(OCCN5CCOCC5)cc4)c3)cc21 [GSK-269962A]
- Ki [1]: > 7.94 µM (inactive)
- Ki [2]: > 1.58 µM (inactive)
- Ki [3]: 1.58 µM (active)
- Ki [4]: 0.0316 µM (active)
- Ki [5]: > 7.94 µM (inactive)
- Ki [6]: > 0.631 µM (inactive)
- Ki [7]: 0.501 µM (active)
- Ki [8]: 0.251 µM (active)
- Ki [9]: 0.158 µM (active)
- Ki [10]: > 1.58 µM (inactive)
- Ki (Aurora kinase A): 0.501 µM (active)
- Ki [11]: > 5.01 µM (inactive)
- Ki [12]: 0.0631 µM (active)
- Ki [13]: > 1.26 µM (inactive)
- Ki [14]: > 1.26 µM (inactive)
- Ki [15]: > 10 µM (inactive)
- Ki [16]: > 6.31 µM (inactive)
- Ki [17]: > 6.31 µM (inactive)
- Ki [18]: > 1.58 µM (inactive)
- Ki [19]: > 10 µM (inactive)
- Ki [20]: > 3.16 µM (inactive)
- Ki [21]: > 10 µM (inactive)
- Ki [22]: > 7.94 µM (inactive)
- Ki [23]: > 2 µM (inactive)
- Ki (Insulin receptor): > 5.01 µM (inactive)
- Ki [24]: 0.0501 µM (active)
- Ki (Ephrin type-A receptor 2): > 3.16 µM (inactive)
- Ki [25]: > 7.94 µM (inactive)
- Ki [26]: > 2 µM (inactive)
- Ki [27]: > 5.01 µM (inactive)
- Ki [28]: > 2.51 µM (inactive)
- Ki [29]: > 1.58 µM (inactive)
- Ki [30]: > 1.58 µM (inactive)
- Ki [31]: 1.58 µM (active)
- Ki [32]: > 6.31 µM (inactive)
- Ki [33]: 0.501 µM (active)
- Ki [34]: > 10 µM (inactive)
- Ki [35]: > 7.94 µM (inactive)
- Ki [36]: > 7.94 µM (inactive)
- Ki (SRSF protein kinase 1): 7.94 µM (active)
- Ki [37]: 7.94 µM (active)
